The text below walks through data of patent US7998965B2, “Glutamate aggrecanase inhibitors” (Wyeth LLC, priority 2005, dated 2011).

For experiment [1], the target named is T1, purified recombinant human Aggrecanase-2 (Ag2t-Phe628-Strep) (Homo sapiens, UniProt Q9UNA0).
T1 construct: the form used is denoted as Ag2t-Phe628-Strep (MW=41,737)
T1 sequence (Q9UNA0 262-628): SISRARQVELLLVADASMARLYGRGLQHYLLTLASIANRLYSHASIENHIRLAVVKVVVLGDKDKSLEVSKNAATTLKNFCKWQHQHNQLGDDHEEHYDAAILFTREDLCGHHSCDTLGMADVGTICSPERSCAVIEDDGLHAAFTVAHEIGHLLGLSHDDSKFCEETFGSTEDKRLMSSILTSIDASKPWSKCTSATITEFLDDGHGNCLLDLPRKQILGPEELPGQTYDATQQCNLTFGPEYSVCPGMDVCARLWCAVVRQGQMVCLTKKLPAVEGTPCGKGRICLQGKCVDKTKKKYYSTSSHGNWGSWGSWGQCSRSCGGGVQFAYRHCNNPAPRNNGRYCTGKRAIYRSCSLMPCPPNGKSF
Description: In vitro fluorescence screen for Aggrecanase-2 inhibitors. In kind it is biochemical. The settings on record: for pIC50: read-out: Agg 2 IC50; for pKi: read-out: Ki Agg2.

Experiment [2] deals with T2, purified recombinant human Aggrecanase-1 (rAgg1) (Homo sapiens, UniProt O75173).
T2 sequence (O75173 213-837): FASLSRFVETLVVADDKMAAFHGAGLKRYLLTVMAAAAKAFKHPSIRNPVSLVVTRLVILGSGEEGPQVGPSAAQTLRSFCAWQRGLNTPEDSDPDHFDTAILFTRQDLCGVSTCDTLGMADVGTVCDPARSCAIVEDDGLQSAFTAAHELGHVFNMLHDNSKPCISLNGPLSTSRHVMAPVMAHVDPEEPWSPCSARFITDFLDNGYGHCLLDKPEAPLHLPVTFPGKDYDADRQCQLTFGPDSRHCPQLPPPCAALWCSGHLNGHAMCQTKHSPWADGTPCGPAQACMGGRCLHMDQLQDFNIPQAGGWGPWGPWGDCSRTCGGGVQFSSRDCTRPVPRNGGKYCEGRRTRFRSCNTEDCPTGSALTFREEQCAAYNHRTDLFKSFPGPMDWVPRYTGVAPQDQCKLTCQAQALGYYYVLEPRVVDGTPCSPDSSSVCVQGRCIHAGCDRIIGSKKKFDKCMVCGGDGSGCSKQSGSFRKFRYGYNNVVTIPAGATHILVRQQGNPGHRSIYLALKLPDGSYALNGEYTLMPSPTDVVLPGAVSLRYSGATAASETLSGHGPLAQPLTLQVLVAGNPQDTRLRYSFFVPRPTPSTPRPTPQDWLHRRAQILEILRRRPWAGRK
Description: In vitro fluorescence screen for Aggrecanase-1 inhibitors. The conditions noted are these: for pIC50: read-out: Agg1 IC50; for pKi: read-out: Ki Agg1. In kind it is biochemical.

pIC50, pKi: −log10 of the molar value. Where two headings read alike, the source gives them in different places.

For `COc1cc(CNC(=O)[C@H](CCC(=O)O)NC(=O)C2c3ccccc3-c3ccccc32)cc(OC)c1OC` [Example 8VVVV, N^2-(9H-fluoren-9-ylcarbonyl)-N^1-(3,4,5-trimethoxybenzyl)-L-α-glutamine], the pIC50 in experiment [1] (Table 2) is below 4.17; in experiment [2] (Table 2), below 4.77.
Taken in the same sequence, the figures for `C[C@@H](NC(=O)[C@H](CCC(=O)O)NC(=O)c1ccc2c(c1)Cc1ccccc1-2)c1ccccc1` [Example 8VVVVV, N^2-(9H-fluoren-2-ylcarbonyl)-N^1-[(1R)-1-phenylethyl]-L-α-glutamine] were 5.81 and 6.66.
For `COc1cc(CNC(=O)[C@H](CCC(=O)O)NC(=O)c2cccc(Oc3ccccc3)c2)cc(OC)c1OC` [Example 8WWWW, N^2-(3-phenoxybenzoyl)-N^1-(3,4,5-trimethoxybenzyl)-L-α-glutamine], in that order: below 4.17 and 5.08.
As for `O=C(O)CC[C@H](NC(=O)c1cccc2c1Cc1ccccc1-2)C(=O)NCCCCCCO` [Example 8WWWWW, N^2-(9H-fluoren-1-ylcarbonyl)-N^1-(6-hydroxyhexyl)-L-α-glutamine], the pIC50 in experiment [1] (Table 2) was below 4.17; in experiment [2] (Table 2), below 4.77.
For `COc1cc(CNC(=O)[C@H](CCC(=O)O)NC(=O)c2cccc3c2-c2ccccc2C3)cc(OC)c1OC` [Example 8XXXX, N^2-(9H-fluoren-4-ylcarbonyl)-N^1-(3,4,5-trimethoxybenzyl)-L-α-glutamine], the figures for the pIC50 in experiment [1] (Table 2) and in experiment [2] (Table 2) were below 3.70 and below 4.30, respectively.
`O=C(O)CC[C@H](NC(=O)c1ccc2c(c1)C(=O)c1ccccc1-2)C(=O)NCCCCCCO` [Example 8XXXXX, N^1-(6-hydroxyhexyl)-N^2-[(9-oxo-9H-fluoren-2-yl)carbonyl]-L-α-glutamine]: the pIC50 in experiment [1] (Table 2) is 5.84; in experiment [2] (Table 2) it was 6.61.
For the compound `CC(C)(Cc1ccc(Cl)cc1)NC(=O)[C@H](CCC(=O)O)NC(=O)c1ccc(-c2cccs2)cc1` [Example 8XXXXXXX, N-[2-(4-chlorophenyl)-1,1-dimethylethyl]-N^2-[4-(2-thienyl)benzoyl]-L-α-glutamine], in experiment [1] (Table 3), the negative logarithm of the IC50 (pIC50) is 7.15 to 7.70 and the pKi was 7.25. Moreover, in experiment [2] (Table 3), the pIC50 is above 7.52 and the pKi is 8.35.
With `CC(C)(Cc1ccc(Cl)cc1)NC(=O)[C@H](CCC(=O)O)NC(=O)c1ccc(-c2ccccc2)nc1` [Example 8XXXXXXXX, N-[2-(4-chlorophenyl)-1,1-dimethylethyl]-N^2-[(6-phenylpyridin-3-yl)carbonyl]-L-α-glutamine], the figures for the negative-log IC50 (pIC50) in experiment [1] (Table 3) and in experiment [2] (Table 3) were 5.77 and 7.00, respectively.
Take `O=C(O)CC[C@H](NC(=O)c1ccc(-c2ccccc2)cc1)C(=O)NCCc1cccc(Cl)c1` [Example 8YY, N^2-(1,1′-biphenyl-4-ylcarbonyl)-N^1-[2-(3-chlorophenyl)ethyl]-L-α-glutamine]: the pIC50 is 5.35 in experiment [1] (Table 1) and 6.28 in experiment [2] (Table 1).
`O=C(O)CC[C@H](NC(=O)c1ccc2c(c1)C(=O)c1ccccc1-2)C(=O)NC12CC3CC(CC(C3)C1)C2` [Example 8YYYY, N^1-1-adamantyl-N^2-[(9-oxo-9H-fluoren-2-yl)carbonyl]-L-α-glutamine]: the figures for the negative logarithm of the IC50 (pIC50) in experiment [1] (Table 2) and in experiment [2] (Table 2) were below 3.70 and 5.82, respectively.
On to `COc1cccc(-c2ccc(C(=O)N[C@@H](CCC(=O)O)C(=O)NC(C)(C)Cc3ccc(Cl)cc3)s2)c1` [Example 8YYYYYYY, N-[2-(4-chlorophenyl)-1,1-dimethylethyl]-N^2-{[5-(3-methoxyphenyl)-2-thienyl]carbonyl}-L-α-glutamine], for which the pIC50 in experiment [1] (Table 3) was 6.22 to 6.70; in experiment [2] (Table 3) it was above 7.52. Moreover, the pKi in experiment [1] (Table 3) is 6.71; in experiment [2] (Table 3) it was 7.57.
For the compound `O=C(O)CC[C@H](NC(=O)c1ccc(Oc2ccccc2)cc1)C(=O)NC12CC3CC(CC(C3)C1)C2` [Example 8ZZZZ, N^1-1-adamantyl-N^2-(4-phenoxybenzoyl)-L-α-glutamine], the values for the negative-log IC50 (pIC50) in experiment [1] (Table 2) and in experiment [2] (Table 2) were below 4.66 and below 4.77, respectively.
Take `CC(C)(Cc1ccc(Cl)cc1)NC(=O)[C@H](CCC(=O)O)NC(=O)c1ccc(-c2ccc(F)c(F)c2)cc1` [Example 8ZZZZZZ, N-[2-(4-chlorophenyl)-1,1-dimethylethyl]-N^2-[(3′,4′-difluorobiphenyl-4-yl)carbonyl]-L-α-glutamine]: the values for the negative-log IC50 (pIC50) in experiment [1] (Table 3) and in experiment [2] (Table 3) were 6.92 and above 7.52, respectively.
`CC(C)(Cc1ccc(Cl)cc1)NC(=O)[C@H](CCC(=O)O)NC(=O)c1ccc(-c2ccccc2)s1` [Example 8ZZZZZZZ, N-[2-(4-chlorophenyl)-1,1-dimethylethyl]-N^2-[(5-phenyl-2-thienyl)carbonyl]-L-α-glutamine]: in experiment [1] (Table 3), the negative logarithm of the IC50 (pIC50) is 6.22 to 6.70 and the negative logarithm of the Ki (pKi) is 6.54. Moreover, in experiment [2] (Table 3), the pIC50 was above 7.52 and the pKi is 7.90.
Consider `CC(C)(Cc1ccc(F)cc1)NC(=O)[C@H](CCC(=O)O)NC(=O)c1ccc(-c2cccnc2)s1` [Example 8ZZZZZZZZ, N-[2-(4-fluorophenyl)-1,1-dimethylethyl]-N^2-[(5-pyridin-3-yl-2-thienyl)carbonyl]-L-α-glutamine], for which the pIC50 in experiment [1] (Table 3) was 5.00; in experiment [2] (Table 3), 7.15 to 7.70.
Consider `O=C(O)CC[C@H](NC(=O)c1ccc(-c2ccccc2)cc1)C(=O)NCCc1ccc(-c2ccc(C(F)(F)F)cc2)cc1` [Example 10A, N^2-(biphenyl-4-ylcarbonyl)-N^1-{2-[4′-(trifluoromethyl)biphenyl-4-yl]ethyl}-L-α-glutamine], for which the pIC50 in experiment [1] (Table 1) is 5.68; in experiment [2] (Table 1) it was 6.08.
Regarding `O=C(O)CC[C@H](NC(=O)c1ccc(-c2ccccc2)cc1)C(=O)NCCc1ccc(-c2ccccc2)cc1` [Example 10C, N^2-(biphenyl-4-ylcarbonyl)-N^1-(2-biphenyl-4-ylethyl)-L-α-glutamine], the values for the pIC50 in experiment [1] (Table 1) and in experiment [2] (Table 1) were below 5.30 and 6.62, respectively.
Taken in the same sequence, the figures for `O=C(O)CC[C@H](NC(=O)c1ccc(-c2ccccc2)cc1)C(=O)NCCc1ccc(-c2cccs2)cc1` [Example 10D, N^2-(biphenyl-4-ylcarbonyl)-N^1-{2-[4-(2-thienyl)phenyl]ethyl}-L-α-glutamine] were 5.49 and 6.32.
Taken in the same sequence, the figures for `C#Cc1ccc(-c2ccc(CCNC(=O)[C@H](CCC(=O)O)NC(=O)c3ccc(-c4ccccc4)cc3)cc2)cc1` [Example 10F, N^2-(biphenyl-4-ylcarbonyl)-N^1-[2-(4′-ethynylbiphenyl-4-yl)ethyl]-L-α-glutamine] were below 4.52 and 6.89.
Taken in the same sequence, the figures for `O=C(O)CC[C@H](NC(=O)c1ccc(-c2ccccc2)cc1)C(=O)NCCc1ccc(-c2ccccn2)cc1` [Example 10G, N^2-(biphenyl-4-ylcarbonyl)-N^1-[2-(4-pyridin-2-ylphenyl)ethyl]-L-α-glutamine] were 5.36 and 6.00.
In the case of `O=C(O)CC[C@H](NC(=O)c1ccc(-c2ccccc2)cc1)C(=O)NCCc1cccc(-c2ccc(C(F)(F)F)cc2)c1` [Example 10K, N^2-(biphenyl-4-ylcarbonyl)-N^1-{2-[4′-(trifluoromethyl)biphenyl-3-yl]ethyl}-L-α-glutamine], the figures for the pIC50 in experiment [1] (Table 1) and in experiment [2] (Table 1) were below 4.00 and 6.42, respectively.
In the case of `COc1ccc(-c2cccc(CCNC(=O)[C@H](CCC(=O)O)NC(=O)c3ccc(-c4ccccc4)cc3)c2)cc1` [Example 10L, N^2-(biphenyl-4-ylcarbonyl)-N^1-[2-(4′-methoxybiphenyl-3-yl)ethyl]-L-α-glutamine], the pIC50 is 5.70 in experiment [1] (Table 1) and 6.89 in experiment [2] (Table 1).
Consider `O=C(O)CC[C@H](NC(=O)c1ccc(-c2ccc3ccccc3c2)cc1)C(=O)NCc1ccccc1` [Example 12F, N-benzyl-N^2-[4-(2-naphthyl)benzoyl]-L-α-glutamine], for which the results for the pIC50 in experiment [1] (Table 2) and in experiment [2] (Table 2) were 5.10 to 5.52 and around 5.52, respectively.
For the compound `O=C(O)CC[C@H](NC(=O)c1ccc(C#Cc2ccccc2)cc1)C(=O)NCc1ccccc1` [Example 12G, N-benzyl-N^2-[4-(phenylethynyl)benzoyl]-L-α-glutamine], the pIC50 is 4.93 in experiment [1] (Table 2) and below 4.60 in experiment [2] (Table 2).
Taken in the same sequence, the figures for `O=C(O)CC[C@H](NC(=O)c1ccc(C#CC2(O)c3ccccc3-c3ccccc32)cc1)C(=O)NCc1ccccc1` [Example 12H, N-benzyl-N^2-{4-[(9-hydroxy-9H-fluoren-9-yl)ethynyl]benzoyl}-L-α-glutamine] were 5.79 and 5.92.

What is called pIC50 is the IC50 on a negative log10 scale, so that one unit is a factor of ten. As usually defined, the pKi is the negative decadic logarithm of the Ki, by convention in mol/L.
